# Data reported in PMC6125496 (Antimicrobial Agents and Chemotherapy, 2018).
# pIC50: −log10 of the molar value. Read-outs that look alike come from different tables or passages of the source. Non-standard residues stand in square brackets, D forms with d. Residues, ends and D or L forms follow the SMILES beside them. Dab(3S-OH) = NC[C@H](O)[C@H](N)C(=O)O; Phe(2-F) = N[C@@H](Cc1ccccc1F)C(=O)O; ΔZArg = N=C(N)NCC/C=C(\N)C(=O)O; dOrn = NCCC[C@@H](N)C(=O)O; Dab = NCC[C@H](N)C(=O)O
# What was measured:
# [1] = tested on: Enterococcus faecalis DSM 2570; assay: microbe, parasite or virus in culture
# Text: (§1) Reference strains are from the German Collection of Microorganisms and Cell Cultures (DSMZ), the American Type Culture Collection (ATCC), the National Collection of Type Cultures (NCTC), and the Medical and Molecular Microbiology, Faculty of Science and Medicine, University of Fribourg, Switzerland.
# Escherichia coli (101) = assay: microbe, parasite or virus in culture; conditions: 101 clinical isolates
# Text: as §1
# [2] = tested on: Klebsiella pneumoniae ATCC BAA-1905; assay: microbe, parasite or virus in culture
# Text: as §1
# [3] = tested on: Citrobacter kozeri DSM 4595; assay: microbe, parasite or virus in culture
# Text: as §1
# [4] = tested on: Ciprofloxacin-resistant K. pneumoniae (27); assay: microbe, parasite or virus in culture
# Text: as §1
# [5] = tested on: Escherichia coli ATCC 25922; assay: microbe, parasite or virus in culture
# Text: as §1
# [6] = tested on: Klebsiella pneumoniae (56); assay: microbe, parasite or virus in culture
# Text: as §1
# [7] = tested on: Klebsiella pneumoniae ATCC 43816; assay: microbe, parasite or virus in culture
# Text: as §1
# [8] = tested on: Escherichia coli BAA-2469; assay: microbe, parasite or virus in culture
# Text: as §1
# [9] = tested on: Pseudomonas aeruginosa DSM 1117; assay: microbe, parasite or virus in culture
# Text: as §1
# [10] = tested on: Stenotrophomonas maltophilia ATCC 13637; assay: microbe, parasite or virus in culture
# Text: as §1
# [11] = tested on: Escherichia coli BAA-2471; assay: microbe, parasite or virus in culture
# Text: as §1
# [12] = tested on: Streptococcus pneumoniae DSM 2134; assay: microbe, parasite or virus in culture
# Text: as §1
# [13] = tested on: Klebsiella pneumoniae NCTC 13443; assay: microbe, parasite or virus in culture
# Text: as §1
# [14] = tested on: Staphylococcus aureus ATCC 29213; assay: microbe, parasite or virus in culture
# Text: as §1
# [15] = tested on: Citrobacter freundii DSM 30039; assay: microbe, parasite or virus in culture
# Text: as §1
# [16] = tested on: Serratia marcescens DSM 17174; assay: microbe, parasite or virus in culture
# Text: as §1
# [17] = tested on: Gentamicin-resistant K. pneumoniae (16); assay: microbe, parasite or virus in culture
# Text: as §1
# [18] = tested on: Enterobacter aerogenes DSM 30053; assay: microbe, parasite or virus in culture
# Text: as §1
# [19] = tested on: Enterobacter cloacae (13); assay: microbe, parasite or virus in culture
# Text: as §1
# [20] = tested on: Acinetobacter baumannii ATCC 19606; assay: microbe, parasite or virus in culture
# Text: as §1
# [21] = tested on: Ciprofloxacin-resistant E. coli (19); assay: microbe, parasite or virus in culture
# Text: as §1
# [22] = tested on: Enterococcus faecium DSM 20477; assay: microbe, parasite or virus in culture
# Text: as §1
# [23] = tested on: Klebsiella pneumoniae NCTC 13442; assay: microbe, parasite or virus in culture
# Text: as §1
# [24] = tested on: Enterobacter cloacae DSM 14563; assay: microbe, parasite or virus in culture
# Text: as §1
# [25] = tested on: Staphylococcus epidermidis ATCC 12228; assay: microbe, parasite or virus in culture
# Text: as §1
# [26] = tested on: Citrobacter freundii (16); assay: microbe, parasite or virus in culture
# Text: as §1
# [27] = tested on: Klebsiella pneumoniae ATCC BAA-1904; assay: microbe, parasite or virus in culture
# Text: as §1
# [28] = tested on: Klebsiella pneumoniae NCTC 13439; assay: microbe, parasite or virus in culture
# Text: as §1
# [29] = tested on: human renal proximal tubular epithelial cells (HRPTEpiC); assay: Multiplexed HRPTEpiC cytotoxicity assay (cell viability, KIM-1, HSP27)
# Procedure: The multiplexed cytotoxicity assay on human renal proximal tubule epithelial cells (HRPTEpiC) was conducted by Eurofins Panlabs (Eurofins Panlabs, Inc., St. Charles, MO) by using an image-based high content analysis (HCA) technique where cells were fixed and stained with nuclear dye to visualize nuclei and fluorescently labeled antibodies to detect drug-induced cellular injury and cellular stress arising from oxidative and chemical stress. Cells were seeded into 384-well plates and grown in RPMI 1640, 10% fetal bovine serum (FBS), 2 mM L-alanyl-L-glutamine, and 1 mM sodium pyruvate in a humidified atmosphere of 5% CO2 at 37°C. […] Compounds were serially diluted 3.16-fold and assayed over 10 concentrations in a final assay concentration of 0.5% dimethyl sulfoxide (DMSO) from 100 μM to 3.7 nM. At the same time, a time zero untreated cell plate was generated. After a 48-h incubation period, cells were fixed and stained with fluorescently labeled antibodies and nuclear dyed to allow visualization of nuclei, injured cells, and stressed cells. Injured cells were detected using a KIM-1 (kidney injury molecule 1) antibody. Stressed cells were detected using an anti-HSP27 (heat shock protein 27) antibody. Cell proliferation was measured by the signal intensity of the incorporated nuclear dye. The cell proliferation assay output was referred to as the relative cell count. To determine the cell proliferation endpoint, the cell proliferation data output was transformed to percentage of control (POC) using the following formula: POC = relative cell count in compound wells/relative cell count in vehicle wells × 100. The signal intensity of the incorporated cellular stress and injury measurements were normalized with the relative cell count from each well. Automated fluorescence microscopy was carried out using a Molecular Devices ImageXpress micro-imager, and images were collected with a 4× objective.
# Escherichia coli MIN = conditions: Ambler class A carbapenemase; KPC-3 + OXA-9
# Text: as §1
# [30] = tested on: Enterobacter cloacae 10.72; conditions: Ambler class C carbapenem resistant; AmpC overexpressed + TEM-1 + OXA-1
# Text: as §1
# [31] = 27 ciprofloxacin-resistant isolates
# [32] = Ambler class B carbapenemase, NDM-1
# [33] = 16 gentamicin-resistant isolates
# [34] = 19 ciprofloxacin-resistant isolates
compound,measurement,setting,value
N=C(N)NCC/C=C(\NC(=O)[C@H](CCCCN)NC(=O)[C@H](Cc1ccccc1F)NC(=O)[C@@H]1CCCN1C(=O)[C@@H](CCCN)NC(=O)CNC(=O)[C@H](CCN)NC(=O)[C@@H](NC(=O)[C@@H](N)CCCCN)[C@@H](O)CN)C(=O)O [NOSO-502] (H-K[Dab(3S-OH)][Dab]G[dOrn]P[Phe(2-F)]K[ΔZArg]-OH),MIC,[1]; DSM 2570,>64 µg/mL
same,MIC 50%,Escherichia coli (101),4 µg/mL
same,MIC 90%,Escherichia coli (101),8 µg/mL
same,MIC,[2]; ATCC BAA-1905,1 µg/mL
same,MIC,[3]; DSM 4595,2 µg/mL
same,MIC range,[4]; Ciprofloxacin-resistant (27),0.5 to 16 µg/mL
same,MIC,[5]; ATCC 25922,4 µg/mL
same,MIC range,[6]; 56,0.5 to 16 µg/mL
same,MIC,[7]; ATCC 43816,1 µg/mL
same,MIC,[8]; BAA-2469,2 µg/mL
same,MIC,[9]; DSM 1117,>64 µg/mL
same,MIC,[10]; ATCC 13637,16 µg/mL
same,MIC,[11]; BAA-2471,4 µg/mL
same,MIC,[12]; DSM 2134,64 µg/mL
same,MIC,[13]; NCTC 13443,1 µg/mL
same,MIC,[14]; ATCC 29213,1 µg/mL
same,MIC,[15]; DSM 30039,2 µg/mL
same,MIC,[16]; DSM 17174,4 µg/mL
same,MIC range,[17]; Gentamicin-resistant (16),0.5 to 2 µg/mL
same,MIC,[18]; DSM 30053,2 µg/mL
same,MIC range,[19]; 13,1 to 4 µg/mL
same,MIC,[20]; ATCC 19606,>64 µg/mL
same,MIC range,[21]; Ciprofloxacin-resistant (19),2 to 32 µg/mL
same,MIC,[22]; DSM 20477,64 µg/mL
same,MIC,[23]; NCTC 13442,1 µg/mL
same,MIC,[24]; DSM 14563,2 µg/mL
same,MIC,[25]; ATCC 12228,0.25 µg/mL
same,MIC range,[26],1 to 4 µg/mL
same,MIC,[27]; ATCC BAA-1904,2 µg/mL
same,MIC,[28]; NCTC 13439,1 µg/mL
same,concentration inducing a significant (5-fold) increase of KIM-1 level,[29]; tested up to 100 μM,> 100 µM
same,MIC,Escherichia coli MIN,4 µg/mL
same,MIC,[30],1 µg/mL
polymyxin B [PMB],MIC,[1]; reference strain,>32 µg/mL
same,MIC 50%,Escherichia coli (101),0.5 µg/mL
same,MIC 90%,Escherichia coli (101),1 µg/mL
same,MIC,"[2]; Ambler class A carbapenemase, KPC-2",0.5 µg/mL
same,MIC,[3]; reference strain,0.25 µg/mL
same,MIC 50%,[4]; [31],0.5 µg/mL
same,MIC 90%,[4]; [31],1 µg/mL
same,MIC,[5]; reference strain,0.5 µg/mL
same,MIC 50%,[6]; 56 clinical isolates,0.5 µg/mL
same,MIC 90%,[6]; 56 clinical isolates,4 µg/mL
same,MIC range,[6]; 56 clinical isolates,0.25 to 32 µg/mL
same,MIC,[7]; reference strain,1 µg/mL
same,MIC,[8]; [32],0.25 µg/mL
same,MIC,[9]; reference strain,1 µg/mL
same,MIC,[10]; reference strain,1 µg/mL
same,MIC,[11]; [32],0.25 µg/mL
same,MIC,[12]; reference strain,>32 µg/mL
same,MIC,[13]; [32],0.5 µg/mL
same,MIC,[14]; reference strain,16 µg/mL
same,MIC,[15]; reference strain,0.5 µg/mL
same,MIC,[16]; reference strain,>32 µg/mL
same,MIC 50%,[17]; [33],0.5 µg/mL
same,MIC 90%,[17]; [33],1 µg/mL
same,MIC range,[17]; [33],0.5 to 1 µg/mL
same,MIC,[18]; reference strain,0.5 µg/mL
same,MIC 50%,[19]; 13 clinical isolates,0.5 µg/mL
same,MIC 90%,[19]; 13 clinical isolates,8 µg/mL
same,MIC range,[19]; 13 clinical isolates,0.5 to 16 µg/mL
same,MIC,[20]; reference strain,0.5 µg/mL
same,MIC 50%,[21]; [34],0.5 µg/mL
same,MIC 90%,[21]; [34],1 µg/mL
same,MIC range,[21]; [34],0.5 to 32 µg/mL
same,MIC,[22]; reference strain,>32 µg/mL
same,MIC,"[23]; Ambler class D carbapenemase, OXA-48",0.5 µg/mL
same,MIC,[24]; reference strain,1 µg/mL
same,MIC,[25]; reference strain,16 µg/mL
same,MIC 50%,[26]; 16 clinical isolates,0.5 µg/mL
same,MIC 90%,[26]; 16 clinical isolates,1 µg/mL
same,MIC range,[26]; 16 clinical isolates,0.25 to 1 µg/mL
same,MIC,"[27]; Ambler class A carbapenemase, KPC-3",0.5 µg/mL
same,MIC,"[28]; Ambler class B carbapenemase, VIM-1",0.5 µg/mL
same,pIC50,"[29]; read-out: cytotoxicity IC50 (cell viability), 48-h incubation",4.93
same,concentration inducing a significant (5-fold) increase of HSP27 level,[29]; tested up to 100 μM,9.7 µM
same,concentration inducing a significant (5-fold) increase of KIM-1 level,[29]; tested up to 100 μM,12.1 µM
same,MIC,Escherichia coli MIN,0.5 µg/mL
same,MIC,[30],0.5 µg/mL
